{
  "source": "patent US9624229B2",
  "about": "“Pyrimidine-2-amine compounds and their use as inhibitors of JAK kinases” (Rigel Pharmaceuticals, Inc., priority 2008, dated 2017)",
  "data": [
    {"target": "Ba/F3 V617F cells (Homo sapiens, UniProt O60674, V617F, cells depend on it)", "sequence (O60674 whole entry V617F)": "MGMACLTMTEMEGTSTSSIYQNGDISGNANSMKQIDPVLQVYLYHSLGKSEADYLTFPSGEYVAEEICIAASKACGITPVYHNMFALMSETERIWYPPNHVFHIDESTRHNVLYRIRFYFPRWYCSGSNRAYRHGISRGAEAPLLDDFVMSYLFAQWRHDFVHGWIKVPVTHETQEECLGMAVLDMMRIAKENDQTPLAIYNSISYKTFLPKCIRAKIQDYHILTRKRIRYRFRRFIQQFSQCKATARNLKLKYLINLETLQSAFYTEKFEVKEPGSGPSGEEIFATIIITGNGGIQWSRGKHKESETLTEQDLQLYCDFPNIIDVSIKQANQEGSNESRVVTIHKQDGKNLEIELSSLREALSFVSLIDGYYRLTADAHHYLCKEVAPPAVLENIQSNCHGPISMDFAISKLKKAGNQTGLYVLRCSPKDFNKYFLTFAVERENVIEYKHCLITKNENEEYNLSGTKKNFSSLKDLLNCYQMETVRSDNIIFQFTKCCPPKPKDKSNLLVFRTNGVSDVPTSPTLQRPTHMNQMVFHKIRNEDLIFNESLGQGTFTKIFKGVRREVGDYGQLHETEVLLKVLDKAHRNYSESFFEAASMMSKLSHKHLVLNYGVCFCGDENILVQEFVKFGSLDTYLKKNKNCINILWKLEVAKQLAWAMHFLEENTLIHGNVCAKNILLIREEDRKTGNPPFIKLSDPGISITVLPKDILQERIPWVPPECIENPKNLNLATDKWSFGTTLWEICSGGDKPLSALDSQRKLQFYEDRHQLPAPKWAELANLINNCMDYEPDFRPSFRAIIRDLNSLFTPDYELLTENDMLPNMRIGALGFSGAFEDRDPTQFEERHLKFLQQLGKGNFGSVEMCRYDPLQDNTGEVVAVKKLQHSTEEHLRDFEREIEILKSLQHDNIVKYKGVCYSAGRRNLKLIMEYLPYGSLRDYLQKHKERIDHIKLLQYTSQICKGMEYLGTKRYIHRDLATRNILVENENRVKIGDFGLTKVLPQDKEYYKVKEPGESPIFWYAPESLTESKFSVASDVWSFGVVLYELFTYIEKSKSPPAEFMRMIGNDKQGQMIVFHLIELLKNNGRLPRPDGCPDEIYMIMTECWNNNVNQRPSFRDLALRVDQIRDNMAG", "experiment": "Proliferation assay (Cell Titer-Glo, 72 h) utilizing Ba/F3 V617F cells", "format": "cell-based, mouse", "settings": "Ba/F3 V617F cells, proliferation, level of activity to inhibit JAK2, read-out: IC50 (the source's name)", "outline": "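Readout is CellTiter-Glo luminescence after 72 h at 37 °C, giving IC50. Cells: Ba/F3 V617F, 1×10^5 cells/mL in RPMI with 10% FBS, treated in duplicate with 3-fold dilution series made from 5 mM DMSO stock, 1:250 in 5% FBS medium, added at 2×.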", "units": {"GI50": "µM"}, "values": [
      {"smiles": "Cc1cc(-c2ccnc(Nc3ccc(N4CC5(C)CN(C)CC(C)(C4)C5)c(F)c3)n2)cnc1N1CCOCC1", "note": "[compound 82, 4-(5-methyl-6-(morpholin-4-yl)pyridin-3-yl)-N-(3-fluoro-4-(1,5,7-trimethyl-3,7-diazabicyclo[3.3.1]nonan-3-yl)phenyl)pyrimidin-2-amine]", "GI50": "< 1"},
      {"smiles": "CN1CC2(C)CN(c3ccc(Nc4nccc(-c5ccc(N(C)C)nc5)n4)cc3F)CC(C)(C1)C2", "note": "[compound 83, 4-(6-(dimethylamino)pyridin-3-yl)-N-(3-fluoro-4-(1,5,7-trimethyl-3,7-diazabicyclo[3.3.1]nonan-3-yl)phenyl)pyrimidin-2-amine]", "GI50": "< 1"},
      {"smiles": "CN1CC2(C)CN(c3ccc(Nc4nccc(-c5ccc(N(C)C)cc5)n4)cc3F)CC(C)(C1)C2", "note": "[compound 84, 4-(4-(dimethylamino)phenyl)-N-(3-fluoro-4-(1,5,7-trimethyl-3,7-diazabicyclo[3.3.1]nonan-3-yl)phenyl)pyrimidin-2-amine]", "GI50": "< 1"},
      {"smiles": "CN1CC2(C)CN(c3ccc(Nc4nccc(-c5ccc(N6CCOCC6)nc5)n4)cc3F)CC(C)(C1)C2", "note": "[compound 85, 4-(6-(morpholin-4-yl)pyridin-3-yl)-N-(3-fluoro-4-(1,5,7-trimethyl-3,7-diazabicyclo[3.3.1]nonan-3-yl)phenyl)pyrimidin-2-amine]", "GI50": "< 1"},
      {"smiles": "Cc1cc(Nc2nccc(-c3cnc4c(c3)OCCN4)n2)ccc1N1C[C@@H]2C[C@H]1CN2C", "note": "[compound 86, 4-(3,4-dihydro-2H-pyrido[3,2-b][1,4]oxazin-7-yl)-N-(3-methyl-4-((1S,4S)-5-methyl-2,5-diazabicyclo[2.2.1]heptan-2-yl)phenyl)pyrimidin-2-amine]", "GI50": "< 1"},
      {"smiles": "CN1C[C@@H]2C[C@H]1CN2c1ccc(Nc2nccc(-c3cnc4c(c3)OCCN4)n2)cc1F", "note": "[compound 87, 4-(3,4-dihydro-2H-pyrido[3,2-b][1,4]oxazin-7-yl)-N-(3-fluoro-4-((1S,4S)-5-methyl-2,5-diazabicyclo[2.2.1]heptan-2-yl)phenyl)pyrimidin-2-amine]", "GI50": "< 1"},
      {"smiles": "Cc1cc(Nc2nccc(-c3cnc4c(c3)OCCN4)n2)ccc1N1CC2(C)CN(C)CC(C)(C1)C2", "note": "[compound 88, 4-(3,4-dihydro-2H-pyrido[3,2-b][1,4]oxazin-7-yl)-N-(3-methyl-4-(1,5,7-trimethyl-3,7-diazabicyclo[3.3.1]nonan-3-yl)phenyl)pyrimidin-2-amine]", "GI50": "< 1"},
      {"smiles": "CN1CC2(C)CN(c3ccc(Nc4nccc(-c5cnc6c(c5)OCCN6)n4)cc3F)CC(C)(C1)C2", "note": "[compound 89, 4-(3,4-dihydro-2H-pyrido[3,2-b][1,4]oxazin-7-yl)-N-(3-fluoro-4-(1,5,7-trimethyl-3,7-diazabicyclo[3.3.1]nonan-3-yl)phenyl)pyrimidin-2-amine]", "GI50": "1 to 10"},
      {"smiles": "Cc1cc(Nc2nccc(-c3ccc(Cc4ccccc4)nc3)n2)ccc1N1CC2(C)CN(C)CC(C)(C1)C2", "note": "[compound 90, 4-(6-(benzyl)pyridin-3-yl)-N-(3-methyl-4-(1,5,7-trimethyl-3,7-diazabicyclo[3.3.1]nonan-3-yl)phenyl)pyrimidin-2-amine]", "GI50": "< 1"},
      {"smiles": "CN1CC2(C)CN(c3ccc(Nc4nccc(-c5ccc(Cc6ccccc6)nc5)n4)cc3F)CC(C)(C1)C2", "note": "[compound 91, 4-(6-(benzyl)pyridin-3-yl)-N-(3-fluoro-4-(1,5,7-trimethyl-3,7-diazabicyclo[3.3.1]nonan-3-yl)phenyl)pyrimidin-2-amine]", "GI50": "< 1"},
      {"smiles": "CCCNc1ncc(-c2ccnc(Nc3ccc(N4C[C@@H]5C[C@H]4CN5C)c(C)c3)n2)cn1", "note": "[compound 92, 4-(2-(propyl)aminopyrimidin-5-yl)-N-(3-methyl-4-((1S,4S)-5-methyl-2,5-diazabicyclo[2.2.1]heptan-2-yl)phenyl)pyrimidin-2-amine]", "GI50": "< 1"},
      {"smiles": "CCCNc1ncc(-c2ccnc(Nc3ccc(N4C[C@@H]5C[C@H]4CN5C)c(F)c3)n2)cn1", "note": "[compound 93, 4-(2-(propyl)aminopyrimidin-5-yl)-N-(3-fluoro-4-((1S,4S)-5-methyl-2,5-diazabicyclo[2.2.1]heptan-2-yl)phenyl)pyrimidin-2-amine]", "GI50": "< 1"},
      {"smiles": "CN1C[C@@H]2C[C@H]1CN2c1ccc(Nc2nccc(-c3ccc(NC4CCCCC4)nc3)n2)cc1C(F)(F)F", "note": "[compound 94, 4-(6-(cyclohexylamino)pyridin-3-yl)-N-(3-trifluoromethyl-4-((1S,4S)-5-methyl-2,5-diazabicyclo[2.2.1]heptan-2-yl)phenyl)pyrimidin-2-amine]", "GI50": "< 1"},
      {"smiles": "Cc1cc(Nc2nccc(-c3cncc(S(C)(=O)=O)c3)n2)ccc1N1C[C@@H]2C[C@H]1CN2C", "note": "[compound 95, 4-(5-(methyl)sulfonylpyridin-3-yl)-N-(3-methyl-4-((1S,4S)-5-methyl-2,5-diazabicyclo[2.2.1]heptan-2-yl)phenyl)pyrimidin-2-amine]", "GI50": "< 1"},
      {"smiles": "CN(C)c1ccc(-c2ccnc(Nc3ccc(N4C[C@@H]5C[C@H]4CN5C)c(C(F)(F)F)c3)n2)cn1", "note": "[compound 96, 4-(6-(dimethylamino)pyridin-3-yl)-N-(3-trifluoromethyl-4-((1S,4S)-5-methyl-2,5-diazabicyclo[2.2.1]heptan-2-yl)phenyl)pyrimidin-2-amine]", "GI50": "< 1"},
      {"smiles": "CN1C[C@@H]2C[C@H]1CN2c1ccc(Nc2nccc(-c3ccc(N4CCOCC4)nc3)n2)cc1C(F)(F)F", "note": "[compound 97, 4-(6-(morpholin-4-yl)pyridin-3-yl)-N-(3-trifluoromethyl-4-((1S,4S)-5-methyl-2,5-diazabicyclo[2.2.1]heptan-2-yl)phenyl)pyrimidin-2-amine]", "GI50": "< 1"},
      {"smiles": "CN1C[C@@H]2C[C@H]1CN2c1ccc(Nc2nccc(-c3cnc4c(c3)OCCN4)n2)cc1C(F)(F)F", "note": "[compound 98, 4-(3,4-dihydro-2H-pyrido[3,2-b][1,4]oxazin-7-yl)-N-(3-trifluoromethyl-4-((1S,4S)-5-methyl-2,5-diazabicyclo[2.2.1]heptan-2-yl)phenyl)pyrimidin-2-amine]", "GI50": "< 1"},
      {"smiles": "Cc1cc(Nc2nccc(-c3ccc(NCCNS(=O)(=O)C4CC4)nc3)n2)ccc1N1C[C@@H]2C[C@H]1CN2C", "note": "[compound 99, 4-(6-((2-(cyclopropylsulfonyl)aminoethyl)-amino)pyridin-3-yl)-N-(3-methyl-4-((1S,4S)-5-methyl-2,5-diazabicyclo[2.2.1]heptan-2-yl)phenyl)pyrimidin-2-amine]", "GI50": "1 to 10"},
      {"smiles": "Cc1cc(Nc2nccc(-c3ccc(NCCNS(=O)(=O)C4CC4)nc3)n2)ccc1N1C[C@@H]2C[C@H]1CO2", "note": "[compound 100, 4-(6-((2-(cyclopropylsulfonyl)aminoethyl)-amino)pyridin-3-yl)-N-(3-methyl-4-((1S,4S)-5-oxa-2-azabicyclo[2.2.1]heptan-2-yl)phenyl)pyrimidin-2-amine]", "GI50": "< 1"},
      {"smiles": "CN1C[C@@H]2C[C@H]1CN2c1ccc(Nc2nccc(-c3cncc(S(C)(=O)=O)c3)n2)cc1F", "note": "[compound 101, 4-(5-(methyl)sulfonylpyridin-3-yl)-N-(3-fluoro-4-((1S,4S)-5-methyl-2,5-diazabicyclo[2.2.1]heptan-2-yl)phenyl)pyrimidin-2-amine]", "GI50": "< 1"},
      {"smiles": "CN1C[C@@H]2C[C@H]1CN2c1ccc(Nc2nccc(-c3cncc(S(C)(=O)=O)c3)n2)cc1C(F)(F)F", "note": "[compound 102, 4-(5-(methyl)sulfonylpyridin-3-yl)-N-(3-trifluoromethyl-4-((1S,4S)-5-methyl-2,5-diazabicyclo[2.2.1]heptan-2-yl)phenyl)pyrimidin-2-amine]", "GI50": "< 1"},
      {"smiles": "Cc1cc(Nc2nccc(-c3ccc4nccn4c3)n2)ccc1N1C[C@@H]2C[C@H]1CN2C", "note": "[compound 103, 4-(imidazo[1,2-a]pyridin-6-yl)-N-(3-methyl-4-((1S,4S)-5-methyl-2,5-diazabicyclo[2.2.1]heptan-2-yl)phenyl)pyrimidin-2-amine]", "GI50": "< 1"},
      {"smiles": "Cc1cc(Nc2nccc(-c3ccc(-c4ncc(-c5ccc(N(C)C)cc5)o4)cc3)n2)ccc1N1C[C@@H]2C[C@H]1CN2C", "note": "[compound 104, 4-(4-(5-(4-dimethylaminophenyl)oxazol-2-yl)phenyl)-N-(3-methyl-4-((1S,4S)-5-methyl-2,5-diazabicyclo[2.2.1]heptan-2-yl)phenyl)pyrimidin-2-amine]", "GI50": "1 to 10"},
      {"smiles": "COc1ccc2cc(-c3ccnc(Nc4ccc(N5C[C@@H]6C[C@H]5CN6C)c(C)c4)n3)[nH]c2c1", "note": "[compound 105, 4-(6-methoxy-1H-indol-2-yl)-N-(3-methyl-4-((1S,4S)-5-methyl-2,5-diazabicyclo[2.2.1]heptan-2-yl)phenyl)pyrimidin-2-amine]", "GI50": "< 1"},
      {"smiles": "Cc1cc(Nc2nccc(-c3cnn(-c4cccc(Cl)c4)c3)n2)ccc1N1C[C@@H]2C[C@H]1CN2C", "note": "[compound 106, 4-(1-(3-chlorophenyl)-1H-pyrazol-4-yl)-N-(3-methyl-4-((1S,4S)-5-methyl-2,5-diazabicyclo[2.2.1]heptan-2-yl)phenyl)pyrimidin-2-amine]", "GI50": "1 to 10"},
      {"smiles": "Cc1cc(Nc2nccc(-c3ccc4ncn(C)c4c3)n2)ccc1N1C[C@@H]2C[C@H]1CN2C", "note": "[compound 107, 4-(1-methylbenzimidazol-6-yl)-N-(3-methyl-4-((1S,4S)-5-methyl-2,5-diazabicyclo[2.2.1]heptan-2-yl)phenyl)pyrimidin-2-amine]", "GI50": "< 1"},
      {"smiles": "Cc1cc(Nc2nccc(-c3cc4cc(C#N)ccc4[nH]3)n2)ccc1N1C[C@@H]2C[C@H]1CN2C", "note": "[compound 108, 4-(5-cyano-1H-indol-2-yl)-N-(3-methyl-4-((1S,4S)-5-methyl-2,5-diazabicyclo[2.2.1]heptan-2-yl)phenyl)pyrimidin-2-amine]", "GI50": "< 1"},
      {"smiles": "Cc1cc(Nc2nccc(-c3cnn(-c4ccc(F)cc4)c3)n2)ccc1N1C[C@@H]2C[C@H]1CN2C", "note": "[compound 109, 4-(1-(4-fluorophenyl)-1H-pyrazol-4-yl)-N-(3-methyl-4-((1S,4S)-5-methyl-2,5-diazabicyclo[2.2.1]heptan-2-yl)phenyl)pyrimidin-2-amine]", "GI50": "< 1"},
      {"smiles": "Cc1cc(Nc2nccc(-c3ccc(N4CCOCC4)nc3)n2)ccc1N1C2CCC1CC2", "note": "[compound 110, 4-(6-(morpholin-4-yl)pyridin-3-yl)-N-(3-methyl-4-(7-azabicyclo[2.2.1]heptan-7-yl)phenyl)pyrimidin-2-amine]", "GI50": "1 to 10"}
    ]}
  ]
}
